Literature values as cited in US9463180B2, “Treatment of molluscum contagiosum” (QUADEX PHARMACEUTICALS, LLC, priority 2013, dated 2016).

Tested on: molluscum contagiosum
Details: small studies; applied 3 times per week, left on skin 6 to 10 hours

Question: For `CC(C)Cn1cnc2c(N)nc3ccccc3c21` [Imiquimod], which success rate is on record?
Answer: about 80%
